Values of other authors in US20200030265A1, “ANTI[…] AND USES THEREOF” (CSP PHARMA, INC., priority 2017, published 2020).

System: ASDs mouse model
Settings: includes core social deficits, sensorimotor coordination, Purkinje cell loss, P2Y2 and P2X7 expression (Naviaux et al. 2013)

Question: With Cc1ccc(C(=O)Nc2ccc(S(=O)(=O)O)c3cc(S(=O)(=O)O)cc(S(=O)(=O)O)c23)cc1NC(=O)c1cccc(NC(=O)Nc2cccc(C(=O)Nc3cc(C(=O)Nc4ccc(S(=O)(=O)O)c5cc(S(=O)(=O)O)cc(S(=O)(=O)O)c45)ccc3C)c2)c1 [suramin, Suramin] as the compound, how does the “multisystem abnormalities that defined the ASD-like phenotype corrected” value read?
Answer: The value was 16.
